Measured values from patent publication US5827887A, “Biphenyl compounds” (Roussel Uclaf, priority 1995, dated 1998).

Biological target: T1, human prostate 5-α-reductase (PH6) (Homo sapiens, UniProt P31213)
T1 construct: Homogenates of human prostates were used, obtained by radical prostatectomies; from tissue; host or cells: human prostate (benign hyperplasia, radical prostatectomy), homogenate, 140,000 g pellet
T1 sequence (P31213 1-254): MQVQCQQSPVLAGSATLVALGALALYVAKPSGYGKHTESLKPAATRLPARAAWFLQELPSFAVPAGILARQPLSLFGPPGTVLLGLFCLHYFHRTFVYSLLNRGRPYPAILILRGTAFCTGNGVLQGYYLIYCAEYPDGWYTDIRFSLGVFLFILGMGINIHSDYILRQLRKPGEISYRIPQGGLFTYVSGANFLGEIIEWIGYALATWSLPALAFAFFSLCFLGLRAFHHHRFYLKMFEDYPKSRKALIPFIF
Test: 5-α-reductase activity in vitro, HPLC of 5-α reduced metabolites of tritiated testosterone, homogenates of human prostates (PH6)
Format: biochemical
Conditions: human prostate homogenate; testosterone substrate; pH 5.5; 37° C., 30 minutes; read-out: IC50 of inhibition of the 5-α-reductase activity of the human prostate enzyme (PH6)
Experimental: The test for measuring the 5-α-reductase activity took place in vitro by incubating the enzyme and its substrate (testosterone) and measuring by HPLC chromatography the quantity of 5-α reduced metabolites formed (dihydro-testosterone (DHT) and 5-α-androstane-diol). Homogenates of human prostates were used, obtained by radical prostatectomies due to benign hyperplasia of the prostate (BHP): PH6.
The prostate was collected as soon as it left the operating theater suite and was packed in aluminum foil placed in a container filled with dry ice. In the laboratory, if the homogenate was not prepared immediately, the prostate could be kept at -80° C. The prostate was shredded over ice into very small pieces, which were homogenized in a medium A (20 mM of potassium phosphate, pH 6.5; 0.32M of sucrose; 1 mM of dithiotreitol (DTT); 50 uM NADPH), in a polytron, then in a Potter glass flask. After centrifuging at 140,000 g for 60 minutes at 4° C., the pellets obtained were suspended in 10 to 20 ml of medium B ([…] of potassium phosphate, pH 6.5; 20% of glycerol; 1 mM of dithiothreitol). The medium was distributed in Nunc tubes kept at -80° C. Determination of the proteins was carried out on a small amount of homogenate for its future use in the test and it was therefore assured of having at least 10 mg of proteins/ml of homogenate.
Incubation was carried out at a pH of 5.5 at the rate of 1 ml of medium/tube in the presence of citrate (normal medium and pH of the prostate).
1) Preparation of the substrate (S) which was the mixture of "unlabelled" testosterone and "tritiated" testosterone with an isotopic dilution of 100 in a trisodium citrate buffer pH 5.0
a) 40 mM of trisodium citrate buffer: 11.76 g of 3 Na-citrate, 2H2 O (Merk ref. Art 6448) were weighed and dissolved in 1 liter of distilled water (Milli-Q) and the solution was adjusted to pH of 5.0.
b) mixture of "unlabelled" testosterone and "tritiated testosterone with an isotopic dilution of 100: To obtain a solution of testosterone of 1 mM, 2.88 mg of "unlabelled" testosterone were weighed and dissolved in 10 ml of ethanol. This solution was diluted to 0.99/1000, that is 9.9 μl in 10 ml of citrate buffer (=10^-6 M solution). 9 μl of ^3 H-testosterone (NET-370) were added to 10 ml of the preceding solution (=isotopic dilution of 100). The substrate (S) was ready.
2) Preparation of enzyme+DTT+NADPH mixture
a) Potassium phosphate buffer, 40 mM, pH 6.5:
5.44 g de KH2 PO4 (Riedel de Haen ref. 30407) was weighed and dissolved in 1 liter of distilled water (Milli-Q) and the solution was adjusted to a pH of 6.5.
3.1 mg of DTT were weighed and dissolved in 1 ml of phosphate buffer.
8.33 mg of NADPH were weighed and dissolved in 1 ml of phosphate buffer.
d) enzyme+DTT+NADPH mixture (E):
For one test, 0.5 mg of proteins of prostate homogenate, 50 μl of DTT and 50 μl of NADPH were mixed together at 4° C. and the mixture was made up to 500 μl with the phosphate buffer.
3) Incubation (5α-reduction)
One tube was prepared for each test and 500 μl of (S) and 10 μl of inhibitor at the desired concentration (or ethanol for the controls) are put in each tube. The tubes containing mixture (S) and the flask containing mixture (E) were pre-incubated in a water bath for 3 to 5 minutes.
To start the reaction, 500 μl of E were transferred rapidly into each tube containing S+the inhibitor and the mixture was incubated at 37° C. with gentle stirring for 30 minutes. […]

IC50 [nM] | Structure (SMILES)
9.6 | CC(C)N(C(=O)COc1c(F)cc(-c2ccc(C(=O)O)cc2)cc1[N+](=O)[O-])C(C)C [Example 4, 4'-[2-[bis-(isopropyl)-amino]-2-oxoethoxy]-3'-fluoro-5'-nitro-(1,1'-biphenyl)-4-carboxylic acid]
92 | O=C(COc1ccc(-c2ccc(C(=O)O)cc2)cc1)NC(c1ccccc1)(c1ccccc1)c1ccccc1 [Example 5, 4'-[2-oxo-2-([tribenzyl)-amino]-ethoxy]-(1,1'-biphenyl) -4-carboxylic acid]
36 | O=C(COc1c(F)cc(-c2ccc(C(=O)O)cc2)cc1[N+](=O)[O-])NC(c1ccccc1)(c1ccccc1)c1ccccc1 [Example 6, 3'-fluoro-5'-nitro-4'-[2-oxo-2-[(tribenzyl)-amino]-ethoxy]-(1,1'-biphenyl)-4-carboxylic acid]
77 | CCc1cc(OCC(=O)N(C(C)C)C(C)C)ccc1-c1ccc(C(=O)O)cc1 [Example 11, 4'-(2-[bis-(isopropyl)-amino)-2-oxoethoxy]-2'-ethyl-(1,1'-biphenyl)-4-carboxylic acid]
2000 | CCc1cc(-c2ccc(C(=O)O)cc2)ccc1OCC(=O)N(C(C)C)C(C)C [Example 12, 4'-[2-[bis-(isopropyl)-amino)-2-oxoethoxy]-3'-ethyl-(1,1'-biphenyl)-4-carboxylic acid]
